Results reported in patent US5840720A (priority 1995, dated 1998).
“And” between values parts separate entries of the source, which are not always exact repeats. Identical values can stand only once. Like-named read-outs stand apart in the source and are kept apart here. Where no end group is shown, it is not given here.

Columns and labels:
[1] = system: isolated guinea-pig right and left atria
[2] = system: calcium channel in the isolated guinea-pig atrium; assay: CaCl2-induced chronotropic and inotropic effects in isolated guinea-pig atria; settings: for inhibition of calcium-induced chronotropic and inotropic effects: pretreatment, increasing CaCl2, right and left atria
Description: Each point represents the mean of six experiments; vertical bars represent the S.E.M.
FIGS. 6A-6B Effect of CAPCNC6 (10 μM) on the positive chronotropic (spontaneously beating right atrium) and inotropic (electrically-driven left atria) effect of increasing Ca^2+ concentrations in guinea pigs. Beating rate and tension were expressed as % of control values. Data represents the mean±S.E.M. (n=7).
D. Effects of compound on the calcium channel in the isolated guinea-pig atrium

[3] = system: isolated guinea-pig ileum; assay: Capsaicin, substance P and carbachol-induced contractility of isolated guinea-pig ileum; settings: for contraction of ileum smooth muscle: carbachol as control, substance P 0.1 μM; for inhibition of substance P-induced ileum contraction: SP 0.1 μM
Description: FIG. 4 The effects of CAPBZ on response of guinea-pig ileum to capsaicin (10 μM), substance P (SP, 0.1 μM), and carbachol (0.5 μM). […] Thirty minutes following washout, responses to SP, and carbachol were recovered.
C. Antagonist activity of compound on capsaicin and substance Pinduced contractilities of isolated guinea-pig ileum
The abdominal incisions for the guinea pig were made and ilea were isolated and placed in cold (4° C.) Tyrode's solution. 2.5 cm segments of ileum were then trimmed and suspended in an organ bath containing 20 ml low calcium Kreb's solution, aerated with 95% O2 and 5% CO2 at 37° C. As the method reported by M. Takaki et al. (Eur. J. Pharmacol. 174, 5762, 1989).
This effect of capsaicin or substance P was inhibited in the presence of 1.0-100 μM of compound 1 (CAPBZ), concentration-dependently.

[4] = system: capsaicin-induced heart rate changes; type: in vivo, Wistar rats
[5] = system: capsaicin-induced blood pressure changes; type: in vivo, Wistar rats
[6] = system: capsaicin-induced hypotensive reflex; type: in vivo, rats
airway = settings: inhalation; cited from earlier work
neuronal sodium currents = settings: cited from earlier work
[7] = system: neuronal calcium currents; settings: cited from earlier work
[8] = system: isolated guinea-pig trachea; assay: Capsaicin-induced contractility of isolated guinea-pig trachea; parameters: species or system guinea pig (Hartley); settings: 0.01-30 μM capsaicin, cumulative
Source text: Each point represents mean±S.E.M of six experiments.
A. Antagonist activity of compounds on capsaicin-induced contractility of isolated guinea-pig bronchi and trachea
Adult guinea pigs (Hartley), weighing 350-450 g, were sacrificed by a blow on the head followed by cervical dislocation. The bronchi and trachea were removed from the lungs, cleaned of all parenchyma, and immediately placed in Kreb's solution. As the method reported by M. G. Belvisi et al. (Eur. J. Pharmacol. 215, 341-4, 1992).

[9] = system: isolated guinea-pig bronchi; parameters: species or system guinea pig (Hartley)
[10] = system: isolated guinea-pig atria; settings: cited from earlier work; for action potential duration: guinea pig atria
guinea-pig bronchi = settings: cited from earlier work
capsaicin = settings: cited from earlier work
[11] = system: isolated guinea-pig right and left atrium; assay: hCGRP-induced beating and tension of isolated guinea-pig atria
[12] = 0.1-10 μM compound, 1.0 μM capsaicin, concentration-dependent
[13] = fast phase, 15 min infusion, one compartment model
[14] = slow phase, 15 min infusion, one compartment model
[15] = A phase, 15 min i.v. infusion 100 μg/kg/min, capsaicin 10 μg/kg i.v., one compartment model
[16] = C phase, 15 min i.v. infusion 100 μg/kg/min, capsaicin 10 μg/kg i.v., one compartment model
[17] = capsaicin 0.01-30 μM cumulative, compound 1 and 3 at 1.0-100 μM, capsazepine 1-10 μM
[18] = pretreatment i.t. 1 nmole, capsaicin i.a. 10 μg/kg, mean±S.E.M., n=6, control (None) -19.6 ± 1.9

CCCCCCCCC(=O)NCc1cc2c(c(OC)c1)OCN(CCCCCC)C2 [Compound 6, N-[hexylamino-(4-oxymethene, 5-methylene)-3-methoxybenzyl] nonanamide]
inhibition of capsaicin-induced positive inotropic and chronotropic effect [1, 12]: significantly inhibited | inhibition of calcium-induced chronotropic and inotropic effects [2]: could inhibit these calcium effects

substance P: SP (substance P) (RPKPQQFFGLM; ends and bridges not checked; UniProt P20366 58-68, looked up) [reference compound]
contraction of ileum smooth muscle ([3]; capsaicin 10 μM): weaker contractions

N-[(4-hydroxy, 5-diethylaminomethyl)-3-methyoxybenzyl] nonamide [Compound 11]
effect of pretreatment on capsaicin-induced inotropic and chronotropic response [1]: decreased the effect of capsaicin | inhibition of capsaicin-induced positive inotropic and chronotropic effect [1]: significantly inhibited | Recovery half-life (t1/2) of capsaicin-induced heart rate changes, fast phase ([4]; rat, in vivo): 11.95 min | Recovery half-life (t1/2) of capsaicin-induced heart rate changes, slow phase ([4]; rat, in vivo): 15.75 min | duration order of antagonist activities ([5]; rat, in vivo): NVABZ>NVABI>capsazepine | efficacy order of antagonist activities, A effect ([5]; rat, in vivo): capsazepine>NVABZ>NVABI | efficacy order of antagonist activities, B effect ([5]; rat, in vivo): NVABI>capsazepine>NVABZ | efficacy order of antagonist activities, C effect ([5]; rat, in vivo): capsazepine>NVABI>NVABZ | recovery of antagonist activity to basal level ([5]; rat, in vivo): recovered to basal level by saline infusion for 30, 45, and 60 minutes gradually | Recovery half-life (t1/2) of capsaicin-induced blood pressure changes, A phase ([5]; rat, in vivo, iv): 10.67 min | Recovery half-life (t1/2) of capsaicin-induced blood pressure changes, C phase ([5]; rat, in vivo, iv): 21.75 min | depressor reflex response: capsaicin-induced blood pressure changes after pretreatment ([6]; rat, in vivo): 19.2 ± 2.5

[Ca+2].[Cl-].[Cl-] [CaCl2, reference compound]
inotropic effect ([2]; cumulative CaCl2, electrically driven left atrium): positive inotropic effect | chronotropic effect ([2]; cumulative CaCl2, spontaneously beating right atrium): positive chronotropic effect

COc1cc(CNC(=O)CCCC/C=C/C(C)C)ccc1O [Capsaicin]
airway resistance (airway): increase airway resistance and leads to bronchoconstriction | inotropic and chronotropic effect [1]: positive inotropic and chronotropic response | inotropic and chronotropic effect ([1]; listed as capsaicin): positive inotropic and chronotropic effect | inhibition of neuronal sodium currents (neuronal sodium currents): inhibit neuronal sodium currents | inhibition of neuronal calcium currents [7]: inhibit neuronal calcium currents | contraction of isolated guinea-pig trachea [8]: concentration-dependent increase in contraction | contraction of ileum smooth muscle ([3]; capsaicin 10 μM): weaker contractions | contraction of isolated guinea-pig bronchi ([9]; 0.01-30 μM capsaicin, cumulative): concentration-dependent increase in contraction | action potential duration [10]: prolong action potential duration | chronotropic and inotropic effects ([10]; isolated guinea-pig atria): potent positive chronotropic and inotropic effects

[N-Allylamino-(4-oxymethylene, 5-methylene)-3-methoxybenzyl] nonanamide [Compound 3]
inhibitory effect in bronchi compared with trachea [9]: more effective in bronchi than in trachea | shift of capsaicin-induced contraction in bronchi [9]: shifted rightward

C[N+](C)(C)CCOC(N)=O [carbachol, reference compound]
contraction of ileum smooth muscle ([3]; capsaicin 10 μM): maximum contraction

Oc1cc2c(cc1O)CN(C(=S)NCCc1ccc(Cl)cc1)CCC2 [Capsazepine, reference compound]
Recovery half-life (t1/2) of capsaicin-induced heart rate changes, fast phase [4, 13]: 1.36 min | Recovery half-life (t1/2) of capsaicin-induced heart rate changes, slow phase [4, 14]: 3/52 | inhibition of contractile response evoked by capsaicin or electrical field stimulation (guinea-pig bronchi): effective in inhibiting the contractile response | efficacy order of antagonist activities, A effect ([5]; A effect): capsazepine>NVABZ>NVABI | Recovery half-life (t1/2) of capsaicin-induced blood pressure changes, A phase [5, 15]: 2.73 min | efficacy order of antagonist activities, B effect ([5]; B effect): NVABI>capsazepine>NVABZ | Recovery half-life (t1/2) of capsaicin-induced blood pressure changes, B phase ([5]; 15 min i.v. infusion 100 μg/kg/min, capsaicin 10 μg/kg i.v., one compartment model): 2.89 min | efficacy order of antagonist activities, C effect ([5]; C effect): capsazepine>NVABI>NVABZ | Recovery half-life (t1/2) of capsaicin-induced blood pressure changes, C phase [5, 16]: 3.78 min | duration order of antagonist activities ([5]; rat, in vivo): NVABZ>NVABI>capsazepine | recovery of antagonist activity to basal level ([5]; saline infusion after 100 μg/kg/min infusion): recovered to basal level by saline infusion for 30, 45, and 60 minutes gradually | capsaicin antagonism / agonism (capsaicin): competitive capsaicin antagonist | shift of capsaicin-induced contraction in bronchi [9, 17]: shifted rightward | depressor reflex response: capsaicin-induced blood pressure changes after pretreatment [6, 18]: 25.8 ± 3.0

CCCCCCCCC(=O)NCc1cc2c(c(OC)c1)OCN(c1ccc(C(=O)OCC)cc1)C2 [Compound 1, N[P-(carboxylic acid ethyl ester)-phenylamine-(4-oxymethylene, 5-methylene)-3-methoxybenzyl] nonanamide]
inhibition of capsaicin-induced positive inotropic and chronotropic effect [1, 12]: significantly inhibited | effect of pretreatment on capsaicin-induced inotropic and chronotropic response ([1]; pretreatment for 30 min, capsaicin 1 μM, FIGS. 3A-3D): decreased the effect of capsaicin | change of CGRP-induced contractilities after CGRP pretreatment ([11]; after pretreatment with CGRP for 30 minutes): could not change CGRP-induced contractilities | inhibition of hCGRP-induced beating and tension ([11]; right and electrically driven left atrium, FIG. 7 CAPBZ 50 μM): not inhibited | inhibition of substance P-induced ileum contraction ([3]; compound 1.0-100 μM): inhibited | inhibition of substance P-induced ileum contraction ([3]; compound 1.0-100 μM, listed as CAPBZ): concentration-dependently reduction of response | reduction of ileum response to carbachol ([3]; carbachol 0.5 μM, FIG. 4): concentration-dependently reduction of response | inhibition of capsaicin-induced ileum contraction ([3]; compound 1.0-100 μM, capsaicin 10 μM, concentration-dependent): inhibited | recovery of responses to SP and carbachol after washout ([3]; thirty minutes following washout): recovered | inhibitory effect in bronchi compared with trachea ([9]; against capsaicin-induced contraction): more effective in bronchi than in trachea | shift of capsaicin-induced contraction in bronchi [9, 17]: shifted rightward | inhibition of calcium-induced chronotropic and inotropic effects [2]: could inhibit these calcium effects

CGRP
action potential duration [10]: prolong action potential duration

CCCCCCCCC(=O)NCc1ccc(OCC(O)CO)c(OC)c1 (centres unmarked) [glyceryl nonivamide]
capsaicin antagonism / agonism (capsaicin): selective capsaicin agonist

N[p-ethylketone-phenylamino-(4-oxymethylene, 5-methylene)-3-methoxybenzyl] nonamide [Compound 12]
inhibition of capsaicin-induced positive inotropic and chronotropic effect [1, 12]: significantly inhibited | Recovery half-life (t1/2) of capsaicin-induced heart rate changes, fast phase [4, 13]: 5.33 min | Recovery half-life (t1/2) of capsaicin-induced heart rate changes, slow phase [4, 14]: 6.00 min | Recovery half-life (t1/2) of capsaicin-induced blood pressure changes, A phase [5, 15]: 4.30 min | Recovery half-life (t1/2) of capsaicin-induced blood pressure changes, B phase ([5]; 15 min i.v. infusion 100 μg/kg/min, capsaicin 10 μg/kg i.v., one compartment model, listed as NVADA): 9.00 min and 9.01 min | Recovery half-life (t1/2) of capsaicin-induced blood pressure changes, C phase [5, 16]: 4.49 min | depressor reflex response: capsaicin-induced blood pressure changes after pretreatment [6, 18]: -10.6 ± 2.5
